# Target: T1, human GLP-1R receptor (Homo sapiens, UniProt P43220)
# T1 construct: expressed in transfected cells
# Assay: GLP-1R low expression cell assay (cAMP TR-FRET, CHO-K1_hGLP-1Rlow_clone10 cells)
# Format: cell-based
# Conditions: for EC50: cAMP TR-FRET, 30 min at 25° C.
# Description: Stable cell lines expressing high and low GLP-1R surface expression were generated in CHO-K1 cells transfected (Fugene 6) with a puromycin selectable DNA plasmid encoding human GLP-1R receptor (accession number: NM_002062.5) under control of an EF1A promoter. Transfected cells were seeded into 24-well plates (9,000 cells/well) containing complete medium and incubated in a humidified incubator at 37° C. with 5% carbon dioxide. After overnight incubation, medium was replaced with complete medium supplemented with puromycin (6 μg/mL) and refreshed every 2-3 days to select for stably transfected cells. Individual pools of selected cells were expanded prior to analysis for responsiveness to GLP-1 control peptide using a TR-FRET assay to detect cAMP (LANCE Ultra CAMP Assay, Perkin Elmer). Briefly, cells were collected in Versene solution, plated in 384-well plates (1,000 cells/well) and combined with serially diluted GLP-IR control peptide (10 nL) using an acoustic dispenser (ECHO). Plates were incubated for 30 minutes at 25° C. prior to the addition of EU-CAMP tracer (5 μL) and Ulight-anti-CAMP (5 μL) reagents to each well, followed by 15 minutes incubation at 25° C. TR-FRET signal was detected using an En Vision Multimode Plate Reader (excitation=320 nm; emission=615 and 655 nm). Dose-response curves were used to generate EC50 values as a measure of responsiveness to the GLP-IR control peptide. Selected cell lines were monitored for responsiveness over multiple passages to ensure stability. […] Briefly, GLP-IR expression was analyzed by flow cytometry using a fluorescein-labeled Exendin-4 peptide fluorescent probe (FLEX). Cells were harvested in Versene solution and washed 3-times with PBS+0.5% BSA before incubation with FLEX reagent (10 μM) for 2 hours at room temperature. After incubation, cells were washed 3-times in PBS+0.5% BSA before final resuspension in PBS prior to analysis by flow cytometry to measure FLEX mean fluorescence intensity (MFI) as a measure of GLP-IR expression on the cell surface.
# For compound testing in the CHO-K1_hGLP-IRlow_clone10 cell line, cells were seeded in 384-well plates (1,000 cells/well). Test compounds were serially diluted in DMSO (10-point, 3-fold dilution), added to wells using an ECHO dispenser (10 nL/well) and plates were centrifuged for 1 min and agitated for 2 min at room temperature prior to 30-minute incubation at 25° C. After incubation, Eu-CAMP (5 μL) and Ulight-anti-cAMP (5 μL) reagents were added to each well, followed by centrifugation for 1 minute, agitation for 2 minutes at room temperature, and final incubation of the plates at 25° C. for 15 minutes. Plates were read using an EnVision microplate reader (excitation=320 nm; emission=615 and 655 nm). Dose-response curves were generated from duplicate wells based on percent activation calculated relative to a control GLP-1 peptide agonist that was run in parallel. EC50 values were determined by fitting percent activation as a function of compound concentration using the Hill equation (XLfit).
# The compounds tested were compound samples prepared according to the General Procedures described in the Examples section.
# [1] = maximum activation relative to control GLP-1 peptide agonist
# T1 sequence (P43220 24-463): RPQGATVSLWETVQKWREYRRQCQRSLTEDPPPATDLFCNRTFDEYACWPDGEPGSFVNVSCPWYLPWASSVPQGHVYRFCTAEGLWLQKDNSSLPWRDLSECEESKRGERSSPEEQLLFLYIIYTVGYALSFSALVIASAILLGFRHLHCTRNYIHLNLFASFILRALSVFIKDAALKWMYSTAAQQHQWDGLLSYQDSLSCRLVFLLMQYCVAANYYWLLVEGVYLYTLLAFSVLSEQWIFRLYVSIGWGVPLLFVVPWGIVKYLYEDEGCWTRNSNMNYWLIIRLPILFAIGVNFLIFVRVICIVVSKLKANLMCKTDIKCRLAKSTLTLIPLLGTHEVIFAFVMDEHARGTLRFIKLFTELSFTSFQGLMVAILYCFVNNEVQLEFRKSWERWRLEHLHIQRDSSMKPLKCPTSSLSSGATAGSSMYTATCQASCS
EC50 [nM],Emax [1] [%],GLP-1R Low Expression Cell Assay Emax (%) [1],SMILES
> 1000,25 to 50,–,"Cn1c(CN2CCC(c3cccc(COc4ccc(C#N)cc4F)n3)CC2)nc2c(OC(F)F)cc(C(=O)O)cc21 [Compound 130, 2-((4-(6-((4-Cyano-2-fluorophenoxy)methyl)pyridin-2-yl)piperidin-1-yl)methyl)-4-(difluoromethoxy)-1-methyl-1H-benzo[d]imidazole-6-carboxylic acid]"
> 1000,25 to 50,–,"O=C(O)c1cc(OCF)c2c(c1)nc(CN1CCC(c3cccc(OCc4ccc(Cl)cc4F)n3)CC1)n2CF [Compound 347, 2-((4-(6-((4-Chloro-2-fluorobenzyl)oxy)pyridin-2-yl)piperidin-1-yl)methyl)-7-(fluoromethoxy)-1-(fluoromethyl)-1H-benzo[d]imidazole-5-carboxylic acid]"
10 to 100,> 85,–,"COc1cc(C(=O)O)cc2c1nc(CN1CCC(c3cccc4c3O[C@H](c3ccc(C#N)cc3F)CO4)CC1)n2C [Compound 310, (R)-2-((4-(3-(4-cyano-2-fluorophenyl)-2,3-dihydrobenzo[b][1,4]dioxin-5-yl)piperidin-1-yl)methyl)-4-methoxy-1-methyl-1H-benzo[d]imidazole-6-carboxylic acid]"
< 10,> 85,–,"COCCOCCOCCOCCOCCOc1cc(C(=O)O)cc2c1nc(CN1CCC(c3cccc4c3O[C@@](C)(c3ccc(Cl)cn3)O4)CC1)n2Cc1cncs1 [Compound 4, (S)-4-((2,5,8,11,14-pentaoxahexadecan-16-yl)oxy)-2-((4-(2-(5-chloropyridin-2-yl)-2-methylbenzo[d][1,3]dioxol-4-yl)piperidin-1-yl)methyl)-1-(thiazol-5-ylmethyl)-1H-benzo[d]imidazole-6-carboxylic acid]"
> 1000,< 25,–,"COc1c(OCc2ccc(Cl)cc2F)cccc1C1CCN(Cc2nc3c(OC(F)F)cc(C(=O)O)cc3n2C)CC1 [Compound 171, 2-((4-(3-((4-Chloro-2-fluorobenzyl)oxy)-2-methoxyphenyl)piperidin-1-yl)methyl)-4-(difluoromethoxy)-1-methyl-1H-benzo[d]imidazole-6-carboxylic acid]"
< 10,–,–,"COc1cc(C(=O)O)cc2c1nc(CN1CCC(c3cccc4c3O[C@@](C)(c3ccc(Cl)cn3)O4)CC1)n2Cc1cncs1 [Compound 32, (S)-2-((4-(2-(5-Chloropyridin-2-yl)-2-methylbenzo[d][1,3]dioxol-4-yl)piperidin-1-yl)methyl)-4-methoxy-1-(thiazol-5-ylmethyl)-1H-benzo[d]imidazole-6-carboxylic acid]"
< 10,> 85,–,"COCC(F)(F)Oc1cc(C(=O)O)cc2c1nc(CN1CCC(c3cccc(OCc4ccc(Cl)cc4F)n3)CC1)n2C [Compound 227, 2-((4-(6-((4-Chloro-2-fluorobenzyl)oxy)pyridin-2-yl)piperidin-1-yl)methyl)-4-(1,1-difluoro-2-methoxyethoxy)-1-methyl-1H-benzo[d]imidazole-6-carboxylic acid]"
> 1000,25 to 50,–,"O=C(O)c1ccc2nc(CN3CCC(c4cccc(OCc5ccc(Cl)cc5F)n4)CC3)[nH]c2c1OC(F)F [Compound 210, 2-((4-(6-((4-Chloro-2-fluorobenzyl)oxy)pyridin-2-yl)piperidin-1-yl)methyl)-7-(difluoromethoxy)-1H-benzo[d]imidazole-6-carboxylic acid]"
< 10,> 85,–,"[2H]C([2H])(C)Oc1cc(C(=O)O)cc2c1nc(CN1CCC(c3cccc(OC([2H])([2H])c4ccc(Cl)cc4F)n3)CC1)n2C [Compound 286, 2-((4-(6-((4-Chloro-2-fluorophenyl)methoxy-d2)pyridin-2-yl)piperidin-1-yl)methyl)-4-(ethoxy-1,1-d2)-1-methyl-1H-benzo[d]imidazole-6-carboxylic acid]"
< 10,> 85,–,"Cn1c(CN2CCC(c3cccc(OCc4ccc(Cl)cc4F)n3)CC2)nc2c(OC(F)CF)cc(C(=O)O)cc21 (single isomer, unassigned) [Compound 329]"
< 10,> 85,–,"[2H]C([2H])([2H])Oc1cc(C(=O)O)cc2c1nc(CN1CCC(c3cccc(OCc4ccc(C#N)cc4F)n3)CC1)n2C[C@@H]1CCO1 [Compound 108, (S)-2-((4-(6-((4-Cyano-2-fluorobenzyl)oxy)pyridin-2-yl)piperidin-1-yl)methyl)-4-(methoxy-d3)-1-(oxetan-2-ylmethyl)-1H-benzo[d]imidazole-6-carboxylic acid]"
< 10,> 85,–,"N#Cc1ccc(COc2cccc(C3CCN(Cc4nc5c(O)c(C(=O)O)ccc5n4C[C@@H]4CCO4)CC3)n2)c(F)c1 [Compound 376, (S)-2-((4-(6-((4-Cyano-2-fluorobenzyl)oxy)pyridin-2-yl)piperidin-1-yl)methyl)-4-hydroxy-1-(oxetan-2-ylmethyl)-1H-benzo[d]imidazole-5-carboxylic acid]"
10 to 100,> 85,–,"Cn1c(CN2CCC(c3ccc(F)c(OCc4ccc(Cl)cc4F)n3)CC2)nc2c(OC(F)F)cc(C(=O)O)cc21 [Compound 242, 2-((4-(6-((4-Chloro-2-fluorobenzyl)oxy)-5-fluoropyridin-2-yl)piperidin-1-yl)methyl)-4-(difluoromethoxy)-1-methyl-1H-benzo[d]imidazole-6-carboxylic acid]"
10 to 100,> 85,–,"Cn1c(CN2CCC(c3cccc(OCc4ccc(C5COC5)cc4F)n3)CC2)nc2c(OC(F)F)cc(C(=O)O)cc21 [Compound 141, 4-(Difluoromethoxy)-2-((4-(6-((2-fluoro-4-(oxetan-3-yl)benzyl)oxy)pyridin-2-yl)piperidin-1-yl)methyl)-1-methyl-1H-benzo[d]imidazole-6-carboxylic acid]"
10 to 100,–,++++ (Emax is >85%),"Cn1c(CN2CCC(c3cccc(OCc4ccc(Cl)cc4F)n3)CC2)nc2c(OC(F)CF)cc(C(=O)O)cc21 (single isomer, unassigned) [Compound 330]"
100 to 1000,> 85,–,"Cn1c(CN2CCC(c3ccnc(OCc4ccc(C#N)cc4F)n3)CC2)nc2c(OC(F)F)cc(C(=O)O)cc21 [Compound 145, 2-((4-(2-((4-Cyano-2-fluorobenzyl)oxy)pyrimidin-4-yl)piperidin-1-yl)methyl)-4-(difluoromethoxy)-1-methyl-1H-benzo[d]imidazole-6-carboxylic acid]"
> 1000,> 85,–,"Cn1c(N(C)[C@H]2CC[C@@H](c3cccc(OCc4ccc(C#N)cc4F)n3)CC2)nc2c(OC(F)F)cc(C(=O)O)cc21 [Compound 142, 2-(((1s,4s)-4-(6-((4-Cyano-2-fluorobenzyl)oxy)pyridin-2-yl)cyclohexyl)(methyl)amino)-4-(difluoromethoxy)-1-methyl-1H-benzo[d]imidazole-6-carboxylic acid]"
10 to 100,> 85,–,"COc1cc(F)ccc1COc1cccc(C2CCN(Cc3nc4c(OC(F)F)cc(C(=O)O)cc4n3C)CC2)n1 [Compound 231, 4-(Difluoromethoxy)-2-((4-(6-((4-fluoro-2-methoxybenzyl)oxy)pyridin-2-yl)piperidin-1-yl)methyl)-1-methyl-1H-benzo[d]imidazole-6-carboxylic acid]"
> 1000,> 85,–,"Cn1c(N[C@H]2CC[C@H](c3cccc(OCc4ccc(Cl)cc4F)n3)CC2)nc2c(OC(F)F)cc(C(=O)O)cc21 [Compound 371, 2-(((1r,4r)-4-(6-((4-Chloro-2-fluorobenzyl)oxy)pyridin-2-yl)cyclohexyl)amino)-4-(difluoromethoxy)-1-methyl-1H-benzo[d]imidazole-6-carboxylic acid]"

SMILES,EC50 [nM],Emax [1] [%],GLP-1R Low Expression Cell Assay Emax (%) [1]
"Cn1c(CN2CCC(c3cccc(OCc4ccc(C#N)cc4F)n3)CC2)nc2c(OC(C)(C)C)cc(C(=O)O)cc21 [Compound 135, 4-(tert-Butoxy)-2-((4-(6-((4-cyano-2-fluorobenzyl)oxy)pyridin-2-yl)piperidin-1-yl)methyl)-1-methyl-1H-benzo[d]imidazole-6-carboxylic acid]",100 to 1000,> 85,–

# — patent US20240368120A1 (Terns Pharmaceuticals, Inc., priority 2023, published 2024)
